# Tested on: MV-4-11 cells
# Test: Gene expression microarray analysis (Affymetrix PrimeView) and GSEA
# Assay type: cell-based, human
# Set-up: RFU PODN (11730768_x_at) / Fold change /veh PODN (11730768_x_at) / RFU LINC00158 (11744669_a_at) / Fold change /veh LINC00158 (11744669_a_at) / RFU DUSP10 (11751237_a_at) / Fold change /veh DUSP10 (11751237_a_at) / RFU ID3 (11757404_x_at) / Fold change /veh ID3 (11757404_x_at) / RFU PLEKHG5 (11737974_s_at) / Fold change /veh PLEKHG5 (11737974_s_at) / RFU LRRC4B (11730491_at) / Fold change /veh LRRC4B (11730491_at) / RFU GIMAP4 (11747438_a_at) / Fold change /veh GIMAP4 (11747438_a_at) / RFU KRT8 (11758183_x_at) / Fold change /veh KRT8 (11758183_x_at) / RFU CNN1 (11734310_a_at) / Fold change /veh CNN1 (11734310_a_at) / RFU VPS37D (11726825_at) / Fold change /veh VPS37D (11726825_at) / RFU C10orf10 (11716522_x_at) / Fold change /veh C10orf10 (11716522_x_at) / RFU KIR2DL2 /// KIR2DL4 /// KIR2DL5A /// KIR2DL5B /// KIR2DS1 /// KIR2DS2 /// KIR2DS3 /// KIR2DS4 /// KIR3DL3 /// KIR3DL3 /// KIR3DS1 (11738374_at) / Fold change /veh KIR2DL2 /// KIR2DL4 /// KIR2DL5A /// KIR2DL5B /// KIR2DS1 /// KIR2DS2 /// KIR2DS3 /// KIR2DS4 /// KIR3DL3 /// KIR3DL3 /// KIR3DS1 (11738374_at) / RFU C1QL1 (11718748_at) / Fold change /veh C1QL1 (11718748_at) / RFU TMPRSS4 (11747572_a_at) / Fold change /veh TMPRSS4 (11747572_a_at) / RFU HAMP (11756126_x_at) / Fold change /veh HAMP (11756126_x_at) / RFU RNFT2 (11725882_a_at) / Fold change /veh RNFT2 (11725882_a_at) / RFU NR4A2 (11747474_a_at) / Fold change /veh NR4A2 (11747474_a_at) / RFU ABCC12 (11746883_a_at) / Fold change /veh ABCC12 (11746883_a_at) / RFU TMEM136 (11760407_x_at) / Fold change /veh TMEM136 (11760407_x_at) / RFU CLDN22 /// WWC2 (11732394_at) / Fold change /veh CLDN22 /// WWC2 (11732394_at) / RFU HLA-DPB1 (11760878_x_at) / Fold change /veh HLA-DPB1 (11760878_x_at) / RFU SPINT1 (11716480_a_at) / Fold change /veh SPINT1 (11716480_a_at) / RFU GAP43 (11754022_s_at) / Fold change /veh GAP43 (11754022_s_at) / RFU A4GNT (11735810_at) / Fold change /veh A4GNT (11735810_at) / RFU PRB3 (11715151_x_at) / Fold change /veh PRB3 (11715151_x_at) / RFU TUBB4B (11761932_at) / Fold change /veh TUBB4B (11761932_at) / RFU CAPN14 (11732068_a_at) / Fold change /veh CAPN14 (11732068_a_at) / RFU TMCC2 (11721928_a_at) / Fold change /veh TMCC2 (11721928_a_at) / RFU IRGQ (11745062_a_at) / Fold change /veh IRGQ (11745062_a_at) / RFU FAM174B (11720279_a_at) / Fold change /veh FAM174B (11720279_a_at) / RFU TMPRSS4 (11748680_a_at) / Fold change /veh TMPRSS4 (11748680_a_at) / RFU FAM212B (11763350_a_at) / Fold change /veh FAM212B (11763350_a_at) / RFU PLEKHG5 (11743358_a_at) / Fold change /veh PLEKHG5 (11743358_a_at) / RFU ZSCAN30 (11745921_a_at) / Fold change /veh ZSCAN30 (11745921_a_at) / RFU CMKLR1 (11741424_a_at) / Fold change /veh CMKLR1 (11741424_a_at) / RFU LOC101060620 /// MAPK8IP1 (11723275_at) / Fold change /veh LOC101060620 /// MAPK8IP1 (11723275_at) / RFU SPTSSB (11747773_x_at) / Fold change /veh SPTSSB (11747773_x_at) / RFU PRSS12 (11739890_at) / Fold change /veh PRSS12 (11739890_at) / RFU BIN1 (11741810_x_at) / Fold change /veh BIN1 (11741810_x_at) / RFU WNT11 (11732464_a_at) / Fold change /veh WNT11 (11732464_a_at) / RFU C10orf10 (11716521_a_at) / Fold change /veh C10orf10 (11716521_a_at) / RFU C5orf56 (11738089_at) / Fold change /veh C5orf56 (11738089_at) / RFU CYB561 (11721691_x_at) / Fold change /veh CYB561 (11721691_x_at) / RFU ANKRD19P (11752326_a_at) / Fold change /veh ANKRD19P (11752326_a_at) / RFU OR2T12 /// OR2T33 /// OR2T8 (11738714_s_at) / Fold change /veh OR2T12 /// OR2T33 /// OR2T8 (11738714_s_at) / RFU VCAN (11748164_a_at) / Fold change /veh VCAN (11748164_a_at) / RFU JSRP1 (11732532_at) / Fold change /veh JSRP1 (11732532_at) / RFU KRTAP10-11 (11738290_x_at) / Fold change /veh KRTAP10-11 (11738290_x_at) / RFU MYO3A (11730013_a_at) / Fold change /veh MYO3A (11730013_a_at) / RFU EBF3 (11725865_a_at) / Fold change /veh EBF3 (11725865_a_at) / RFU CAMK2N1 (11719241_x_at) / Fold change /veh CAMK2N1 (11719241_x_at) / RFU C5orf56 (11738088_a_at) / Fold change /veh C5orf56 (11738088_a_at) / RFU OLFML3 (11715873_a_at) / Fold change /veh OLFML3 (11715873_a_at) / RFU LOC100653217 /// NTM (11731650_a_at) / Fold change /veh LOC100653217 /// NTM (11731650_a_at) / RFU MAPK11 (11762145_a_at) / Fold change /veh MAPK11 (11762145_a_at) / RFU FIZ1 (11724087_x_at) / Fold change /veh FIZ1 (11724087_x_at) / RFU OASL (11726364_x_at) / Fold change /veh OASL (11726364_x_at) / RFU SOX15 (11748057_x_at) / Fold change /veh SOX15 (11748057_x_at) / RFU CD79A (11719716_a_at) / Fold change /veh CD79A (11719716_a_at) / RFU HIST1H1D (11736915_at) / Fold change /veh HIST1H1D (11736915_at) / RFU CASKIN2 (11723855_a_at) / Fold change /veh CASKIN2 (11723855_a_at) / RFU LOC730098 (11760151_x_at) / Fold change /veh LOC730098 (11760151_x_at) / RFU OR4N2 (11742367_at) / Fold change /veh OR4N2 (11742367_at) / RFU PRRT2 (11749266_a_at) / Fold change /veh PRRT2 (11749266_a_at) / RFU SNX32 (11753110_a_at) / Fold change /veh SNX32 (11753110_a_at) / RFU CDHR5 (11726645_a_at) / Fold change /veh CDHR5 (11726645_a_at) / RFU RCAN1 (11760418_a_at) / Fold change /veh RCAN1 (11760418_a_at) / RFU FAM167A (11723789_a_at) / Fold change /veh FAM167A (11723789_a_at) / RFU FAM26E (11764081_at) / Fold change /veh FAM26E (11764081_at) / RFU ISYNA1 (11749810_s_at) / Fold change /veh ISYNA1 (11749810_s_at) / RFU ACY1 (11761880_at) / Fold change /veh ACY1 (11761880_at) / RFU 11764098_at / Fold change /veh 11764098_at / RFU SAMD14 (11745864_x_at) / Fold change /veh SAMD14 (11745864_x_at) / RFU NPB (11741838_a_at) / Fold change /veh NPB (11741838_a_at) / RFU TMPRSS6 (11731388_a_at) / Fold change /veh TMPRSS6 (11731388_a_at) / RFU KRTAP10-2 (11738614_at) / Fold change /veh KRTAP10-2 (11738614_at) / RFU ARHGAP8 /// PRR5-ARHGAP8 (11727945_x_at) / Fold change /veh ARHGAP8 /// PRR5-ARHGAP8 (11727945_x_at) / RFU KRTAP5-7 /// NADSYN1 (11734609_at) / Fold change /veh KRTAP5-7 /// NADSYN1 (11734609_at) / RFU RASL12 (11751679_a_at) / Fold change /veh RASL12 (11751679_a_at) / RFU CDKN2B (11736163_a_at) / Fold change /veh CDKN2B (11736163_a_at) / RFU PRF1 (11729649_at) / Fold change /veh PRF1 (11729649_at) / RFU, ZNF638 /// ZNF638-IT1 / Fold change vs veh, ZNF638 /// ZNF638-IT1 / RFU, PANK3 / Fold change vs veh, PANK3 / RFU, SH3YL1 / Fold change vs veh, SH3YL1 / RFU, ZEB2 / Fold change vs veh, ZEB2 / RFU, NRIP1 / Fold change vs veh, NRIP1 / RFU, PTTG1IP / Fold change vs veh, PTTG1IP / RFU, CAPN2 / Fold change vs veh, CAPN2 / RFU, MED14 / Fold change vs veh, MED14 / RFU, SNORA58 / Fold change vs veh, SNORA58 / RFU, C1orf63 / Fold change vs veh, C1orf63 / RFU, LRRFIP1 / Fold change vs veh, LRRFIP1 / RFU, NDUFAF7 / Fold change vs veh, NDUFAF7 / RFU, SLC12A2 / Fold change vs veh, SLC12A2 / RFU, IBTK / Fold change vs veh, IBTK / RFU, ESF1 / Fold change vs veh, ESF1 / Fold change vs veh, TMEM50B / RFU, TAOK1 / Fold change vs veh, TAOK1 / RFU, ACBD3 / Fold change vs veh, ACBD3 / RFU, TMA16 / Fold change vs veh, TMA16 / RFU, RWDD3 / Fold change vs veh, RWDD3 / RFU, BCAT1 / Fold change vs veh, BCAT1 / RFU, EDEM3 / Fold change vs veh, EDEM3 / RFU, TMEM33 / Fold change vs veh, TMEM33 / RFU, WDR75 / Fold change vs veh, WDR75 / RFU, AHCTF1 / Fold change vs veh, AHCTF1 / RFU, TFRC / Fold change vs veh, TFRC / RFU, ZDHHC17 / Fold change vs veh, ZDHHC17 / RFU, NOM1 / Fold change vs veh, NOM1 / RFU, ARL8B / Fold change vs veh, ARL8B / RFU, ZBTB11 / Fold change vs veh, ZBTB11 / RFU, TAMM41 / Fold change vs veh, TAMM41 / RFU, KIAA1704 /// LOC100996395 / Fold change vs veh, KIAA1704 /// LOC100996395 / RFU, ING1 / Fold change vs veh, ING1 / RFU, TRMT61B / Fold change vs veh, TRMT61B / RFU, FUBP3 / Fold change vs veh, FUBP3 / RFU, TP53 / Fold change vs veh, TP53 / RFU, TNKS2 / Fold change vs veh, TNKS2 / RFU, ZFP14 / Fold change vs veh, ZFP14 / RFU, ACTR2 / Fold change vs veh, ACTR2 / RFU, PPP3R1 / Fold change vs veh, PPP3R1 / RFU, PIK3R1 / Fold change vs veh, PIK3R1 / RFU, HNRNPA1 / Fold change vs veh, HNRNPA1 / RFU, RNF170 / Fold change vs veh, RNF170 / RFU, ZNF28 / Fold change vs veh, ZNF28 / RFU, RNGTT / Fold change vs veh, RNGTT / RFU, OGT / Fold change vs veh, OGT / RFU, BRD1 / Fold change vs veh, BRD1 / RFU, MARS / Fold change vs veh, MARS / RFU, ZNF655 / Fold change vs veh, ZNF655 / RFU, FAHD1 / Fold change vs veh, FAHD1 / RFU, BDP1 / Fold change vs veh, BDP1 / RFU, LRRCC1 / Fold change vs veh, LRRCC1 / RFU, ARID1A / Fold change vs veh, ARID1A / RFU, ZNF146 / Fold change vs veh, ZNF146 / RFU, ZNF330 / Fold change vs veh, ZNF330 / RFU, GPN3 / Fold change vs veh, GPN3 / RFU, C9orf123 / Fold change vs veh, C9orf123 / RFU, N4BP2L2 / Fold change vs veh, N4BP2L2 / RFU, ARFIP1 / Fold change vs veh, ARFIP1 / RFU, FAM179B / Fold change vs veh, FAM179B / RFU, BCL10 / Fold change vs veh, BCL10 / RFU, UHRF1BP1L / Fold change vs veh, UHRF1BP1L / RFU, BET1 / Fold change vs veh, BET1 / RFU, CNOT2 / Fold change vs veh, CNOT2 / RFU, ZNF268 / Fold change vs veh, ZNF268 / Fold change vs veh, ZNF507 / RFU, DGCR2 / Fold change vs veh, DGCR2 / RFU, WDSUB1 / Fold change vs veh, WDSUB1 / Fold change vs veh, HSP90B1 /// MIR3652 / RFU, ADSS / Fold change vs veh, ADSS / RFU, GK / Fold change vs veh, GK / RFU, ZNF148 / Fold change vs veh, ZNF148 / RFU, TAF9 / Fold change vs veh, TAF9 / RFU, SLC1A5 / Fold change vs veh, SLC1A5 / RFU, SLMO2 / Fold change vs veh, SLMO2 / RFU, ABCC4 / Fold change vs veh, ABCC4 / RFU, LOC101060439 /// RAP1B / Fold change vs veh, LOC101060439 /// RAP1B / RFU, RFX7 / Fold change vs veh, RFX7 / RFU, GTPBP10 / Fold change vs veh, GTPBP10 / RFU, CNEP1R1 / Fold change vs veh, CNEP1R1 / RFU, BIVM-ERCC5 /// ERCC5 / Fold change vs veh, BIVM-ERCC5 /// ERCC5 / RFU, ILF3 / Fold change vs veh, ILF3 / RFU 11762660_at / Fold change /veh 11762660_at / RFU VCAN (11757783_s_at) / Fold change /veh VCAN (11757783_s_at) / RFU DDX43 (11728927_at) / Fold change /veh DDX43 (11728927_at) / RFU KRT8 (11758188_x_at) / Fold change /veh KRT8 (11758188_x_at) / RFU NKD1 (11759106_at) / Fold change /veh NKD1 (11759106_at) / RFU SRD5A1 (11742802_a_at) / Fold change /veh SRD5A1 (11742802_a_at) / RFU TPSAB1 /// TPSB2 (11721975_s_at) / Fold change /veh TPSAB1 /// TPSB2 (11721975_s_at) / RFU GSTM3 (11746129_a_at) / Fold change /veh GSTM3 (11746129_a_at) / RFU IL23R (11737362_x_at) / Fold change /veh IL23R (11737362_x_at) / RFU TMEM51 (11727254_a_at) / Fold change /veh TMEM51 (11727254_a_at) / RFU PIWIL2 (11732686_x_at) / Fold change /veh PIWIL2 (11732686_x_at) / RFU ORM1 (11744905_x_at) / Fold change /veh ORM1 (11744905_x_at) / RFU CCDC152 (11743942_at) / Fold change /veh CCDC152 (11743942_at) / RFU ECM1 (11717891_a_at) / Fold change /veh ECM1 (11717891_a_at) / RFU IL23R (11748794_a_at) / Fold change /veh IL23R (11748794_a_at) / RFU TNFAIP8L3 (11732012_x_at) / Fold change /veh TNFAIP8L3 (11732012_x_at) / RFU MBOAT4 (11741988_at) / Fold change /veh MBOAT4 (11741988_at) / RFU 11764193_at / Fold change /veh 11764193_at / RFU TMEM53 (11763286_at) / Fold change /veh TMEM53 (11763286_at) / RFU MAGEB2 (11727129_at) / Fold change /veh MAGEB2 (11727129_at) / RFU TMEM200A (11744735_a_at) / Fold change /veh TMEM200A (11744735_a_at) / RFU CCDC152 (11751479_a_at) / Fold change /veh CCDC152 (11751479_a_at) / RFU FAM211A (11726209_a_at) / Fold change /veh FAM211A (11726209_a_at) / RFU RGS16 (11746705_a_at) / Fold change /veh RGS16 (11746705_a_at) / RFU VCAN (11755009_s_at) / Fold change /veh VCAN (11755009_s_at) / RFU RHOB (11743442_s_at) / Fold change /veh RHOB (11743442_s_at) / RFU RGS16 (11720943_a_at) / Fold change /veh RGS16 (11720943_a_at) / RFU RGS16 (11720944_at) / Fold change /veh RGS16 (11720944_at) / RFU, VPS4B / Fold change vs veh, VPS4B / RFU, CREB1 / Fold change vs veh, CREB1 / RFU, DNAJC13 / Fold change vs veh, DNAJC13 / RFU, GNAQ / Fold change vs veh, GNAQ / RFU, CDK5R1 / Fold change vs veh, CDK5R1 / RFU, ZRANB3 / Fold change vs veh, ZRANB3 / RFU, CUL4A / Fold change vs veh, CUL4A / RFU, CCNY / Fold change vs veh, CCNY / RFU, UFL1 / Fold change vs veh, UFL1 / RFU, COG3 / Fold change vs veh, COG3 / RFU, DIAPH2 / Fold change vs veh, DIAPH2 / RFU, SKA2 / Fold change vs veh, SKA2 / RFU, AFF3 / Fold change vs veh, AFF3 / RFU, LMF1 / Fold change vs veh, LMF1 / RFU, IPO11 / Fold change vs veh, IPO11 / RFU, DFFB / Fold change vs veh, DFFB / RFU, FOXP1 / Fold change vs veh, FOXP1 / RFU, CARD8 / Fold change vs veh, CARD8 / RFU, STRN3 / Fold change vs veh, STRN3 / RFU, ADK / Fold change vs veh, ADK / RFU, RASSF2 / Fold change vs veh, RASSF2 / RFU, WIPF1 / Fold change vs veh, WIPF1 / RFU, LARP1B / Fold change vs veh, LARP1B / RFU, RASA1 / Fold change vs veh, RASA1 / RFU, RB1 / Fold change vs veh, RB1 / RFU, PPFIA1 / Fold change vs veh, PPFIA1 / RFU, MAT2A / Fold change vs veh, MAT2A / RFU, CCT5 / Fold change vs veh, CCT5 / RFU, WDR92 / Fold change vs veh, WDR92 / RFU, CUX1 / Fold change vs veh, CUX1 / RFU, TTC7A / Fold change vs veh, TTC7A / RFU, TMEM135 / Fold change vs veh, TMEM135 / RFU, DEPTOR / Fold change vs veh, DEPTOR / RFU, CPM / Fold change vs veh, CPM / RFU, DNAJB6 / Fold change vs veh, DNAJB6 / RFU, CACNA2D3 / Fold change vs veh, CACNA2D3 / RFU, DTX4 / Fold change vs veh, DTX4 / RFU, TFCP2 / Fold change vs veh, TFCP2 / RFU, GMCL1 /// GMCL1P1 / Fold change vs veh, GMCL1 /// GMCL1P1 / RFU, AEBP2 / Fold change vs veh, AEBP2 / RFU, SNHG1 /// SNORD22 /// SNORD25 /// SNORD26 /// SNORD27 /// SNORD28 /// SNORD29 /// SNORD31 / Fold change vs veh, SNHG1 /// SNORD22 /// SNORD25 /// SNORD26 /// SNORD27 /// SNORD28 /// SNORD29 /// SNORD31 / Fold change (Aza/veh), C12orf56 (ProbeSet 11735607_a_at) / Fold change (ACY-1035/veh), C12orf56 (ProbeSet 11735607_a_at) / Fold change (Aza/veh), FGFR1OP (ProbeSet 11751329_s_at) / Fold change (ACY-1035/veh), FGFR1OP (ProbeSet 11751329_s_at) / Fold change (Aza/veh), VPS36 (ProbeSet 11739960_a_at) / Fold change (ACY-1035/veh), VPS36 (ProbeSet 11739960_a_at) / RFU SYPL1 (11715823_x_at) / Fold change /veh SYPL1 (11715823_x_at) / RFU IGFBP7 (11715501_s_at) / Fold change /veh IGFBP7 (11715501_s_at) / RFU REEP3 (11722064_at) / Fold change /veh REEP3 (11722064_at) / RFU IGLL1 (11728026_x_at) / Fold change /veh IGLL1 (11728026_x_at): dose or concentration left out as unconfirmed
# Settings: ProbeSet 11727958_a_at; LIST B
structure (smiles),measurement,value
Nc1ncn([C@@H]2O[C@H](CO)[C@@H](O)[C@H]2O)c(=O)n1 [azacitidine],"Fold change vs veh, ING1",0.99

# Source: paper PMC5218480 (PLoS ONE, 2017)
